Laboratory results from PubChem BioAssay (NCI).
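Growth conditions: 96-well plates. Treatment: test compound, 48 hours, 5 concentrations. Analysis: linear interpolation between bracketing concentrations; unreached endpoints set to highest concentration. TGI marks complete inhibition of growth.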

How the values were obtained:
Experiment in all cases: NCI tumour cell line growth inhibition, 48 h
[1] = test system: OVCAR-4 ovarian
[2] = test system: MALME-3M melanoma
[3] = test system: UO-31 renal
[4] = test system: HT29 colon
[5] = test system: UACC-257 melanoma
[6] = test system: SF-268 CNS
[7] = test system: A549 NSCLC
[8] = test system: UACC-62 melanoma
[9] = test system: SK-MEL-28 melanoma
[10] = test system: PC-3 prostate
[11] = test system: RPMI-8226 leukemia
[12] = test system: MDA-MB-231 breast
[13] = test system: NCI-H522 lung
[14] = test system: 786-0 renal
[15] = test system: T-47D breast
[16] = test system: SK-OV-3 ovarian
[17] = test system: RXF 393 renal
[18] = test system: HCT-116 colon
[19] = test system: SR leukemia
[20] = test system: HCT-15 colon
[21] = test system: K-562 leukemia
[22] = test system: M14 melanoma
[23] = test system: A498 renal
[24] = test system: NCI/ADR-RES ovarian
[25] = test system: COLO 205 colon
[26] = test system: SW-620 colon
[27] = test system: HS 578T breast
[28] = test system: SF-539 CNS
[29] = test system: LOX IMVI melanoma
[30] = test system: HOP-92 NSCLC
[31] = test system: IGROV1 ovarian
[32] = test system: OVCAR-3 ovarian
[33] = test system: SK-MEL-2 melanoma
[34] = test system: MDA-N
[35] = test system: CAKI-1 renal
[36] = test system: SN12C renal
[37] = test system: NCI-H23 lung
[38] = test system: DU-145 prostate
[39] = test system: MCF7 breast
[40] = test system: OVCAR-5 ovarian
[41] = test system: BT-549 breast
[42] = test system: HOP-62 NSCLC
[43] = test system: MOLT-4 leukemia
[44] = test system: U251 CNS
[45] = test system: SNB-19 CNS
[46] = test system: SNB-75 CNS
[47] = test system: NCI-H460 lung
[48] = test system: HCC-2998 colon
[49] = test system: ACHN renal
[50] = test system: MDA-MB-435
[51] = test system: OVCAR-8 ovarian
[52] = test system: SK-MEL-5 melanoma
[53] = test system: KM12 colon
[54] = test system: TK-10 renal
[55] = test system: EKVX NSCLC
[56] = test system: NCI-H226 lung
[57] = test system: SF-295 CNS
[58] = test system: HL-60(TB) leukemia
[59] = test system: CCRF-CEM leukemia

CCCOc1cc2c(cc1O)CC[C@@H]1[C@@H]2CC[C@]2(C)[C@@H](O)CC[C@@H]12 was tested, and the TGI [1] was over 65.5 µM, the TGI [2] was over 100 µM and the TGI [3] was over 57.2 µM. It also gave a TGI [4] of 25.9 µM, a TGI [5] of over 58.7 µM and a TGI [6] of over 59.7 µM. The TGI [7] was over 56.3 µM, the TGI [8] was 30.8 µM and the TGI [9] was over 50.4 µM. The TGI [10] was over 51.6 µM, the TGI [11] was 23.7 µM and the TGI [12] was 27.7 µM. For the same compound, the TGI [13] was 3.52 µM, the TGI [14] was 30.5 µM and the TGI [15] was over 45 µM. For the same compound, the TGI [16] was 50.5 µM, the TGI [17] was 10.4 µM and the TGI [18] was 42 µM. For the same compound, the TGI [19] was 16.7 µM, the TGI [20] was over 35.3 µM and the TGI [21] was 5.33 µM. For the same compound, the TGI [22] was 36.8 µM, the TGI [23] was 20.7 µM and the TGI [24] was 39 µM. It also gave a TGI [25] of 30 µM, a TGI [26] of over 35.5 µM and a TGI [27] of 11.3 µM. The TGI [28] was 4.44 µM, the TGI [29] was 34.5 µM and the TGI [30] was over 60.4 µM. For the same compound, the TGI [31] was over 100 µM, the TGI [32] was over 46.2 µM and the TGI [33] was 11.3 µM. The TGI [34] was 2.14 µM, the TGI [35] was 23.5 µM and the TGI [36] was 37.8 µM. It also gave a TGI [37] of over 55.5 µM, a TGI [38] of 27.2 µM and a TGI [39] of 37.2 µM. It also gave a TGI [40] of over 65.4 µM, a TGI [41] of 20.1 µM and a TGI [42] of 14.1 µM. For the same compound, the TGI [43] was 14.2 µM, the TGI [44] was 34.2 µM and the TGI [45] was over 100 µM. For the same compound, the TGI [46] was 32.4 µM, the TGI [47] was 26.5 µM and the TGI [48] was 17.6 µM. It also gave a TGI [49] of over 56.2 µM, a TGI [50] of 5.91 µM and a TGI [51] of over 59.1 µM. The TGI [52] was 12.1 µM, the TGI [53] was over 55.5 µM and the TGI [54] was 54.7 µM. It also gave a TGI [55] of over 57.7 µM, a TGI [56] of 55 µM and a TGI [57] of 14.7 µM. It also gave a TGI [58] of 18.9 µM and a TGI [59] of over 37.4 µM.
Compound COc1ccc(/C=C/C(=O)Oc2ccc(/C=C3\CCCCC3=O)cc2)cc1 has a TGI [1] of over 90.2 µM, a TGI [2] of over 100 µM and a TGI [3] of over 100 µM. It also gave a TGI [4] of 26.3 µM, a TGI [5] of over 100 µM and a TGI [6] of over 69.5 µM. It also gave a TGI [7] of over 100 µM, a TGI [8] of over 100 µM and a TGI [9] of over 100 µM. The TGI [10] was over 100 µM, the TGI [11] was 13.9 µM and the TGI [12] was over 83.9 µM. For the same compound, the TGI [13] was over 100 µM, the TGI [14] was over 100 µM and the TGI [15] was over 100 µM. For the same compound, the TGI [16] was over 100 µM, the TGI [17] was over 100 µM and the TGI [18] was over 95.4 µM. For the same compound, the TGI [19] was over 100 µM, the TGI [20] was over 100 µM and the TGI [21] was over 100 µM. The TGI [22] was over 100 µM, the TGI [23] was over 100 µM and the TGI [24] was over 100 µM. The TGI [25] was over 93.2 µM, the TGI [26] was over 100 µM and the TGI [27] was over 100 µM. It also gave a TGI [28] of over 100 µM, a TGI [29] of over 100 µM and a TGI [30] of over 100 µM. The TGI [31] was over 100 µM, the TGI [32] was over 100 µM and the TGI [33] was over 100 µM. For the same compound, the TGI [34] was over 100 µM, the TGI [35] was over 100 µM and the TGI [36] was over 100 µM. It also gave a TGI [37] of over 100 µM, a TGI [38] of over 100 µM and a TGI [39] of over 100 µM. It also gave a TGI [40] of over 100 µM, a TGI [41] of over 100 µM and a TGI [42] of over 77.3 µM. It also gave a TGI [43] of 7.51 µM, a TGI [44] of over 100 µM and a TGI [45] of over 100 µM. The TGI [46] was over 100 µM, the TGI [47] was over 100 µM and the TGI [48] was over 72.3 µM. The TGI [49] was over 100 µM, the TGI [50] was over 100 µM and the TGI [51] was over 100 µM. It also gave a TGI [52] of over 100 µM, a TGI [53] of over 100 µM and a TGI [54] of over 100 µM. It also gave a TGI [55] of over 100 µM, a TGI [56] of over 100 µM and a TGI [57] of 49.4 µM. For the same compound, the TGI [58] was over 83.6 µM and the TGI [59] was 6.77 µM.
